Experimental data as given in PubChem BioAssay (NCI).
Where “and” joins values, the source holds several entries; their conditions need not be identical. Equal values may be shown once.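 How tested: cells in 96-well plates exposed to compound for 48 hours at five concentrations. The concentration for 50% growth inhibition is given as GI50. TGI marks complete inhibition of growth.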 Calls of active or inactive are those of the source. No stated cut-off is given here; in the data, active means GI50 below about 0.43 µM; inactive means the rest.

Legend:
Assay in all cases: NCI anticancer screen, dose series, 48 h
[1] = system: 786-0 renal
[2] = system: BT-549 breast
[3] = system: EKVX NSCLC
[4] = system: HCT-116 colon
[5] = system: MDA-N
[6] = system: MOLT-4 leukemia
[7] = system: NCI-H23 lung
[8] = system: OVCAR-3 ovarian
[9] = system: OVCAR-8 ovarian
[10] = system: SK-OV-3 ovarian

O=C(C(Cl)=C(N1CCOCC1)N1CCOCC1)C(Cl)Cl
TGI [1]: > 100 µM | TGI [2]: > 100 µM | TGI [3]: > 100 µM | TGI [4]: > 100 µM | TGI [5]: > 100 µM | TGI [6]: > 100 µM | TGI [7]: > 100 µM | TGI [8]: > 100 µM | TGI [9]: > 100 µM | TGI [10]: > 100 µM

COC(=O)[C@H](Cc1ccccc1)NC(=O)CCCCCCC(=O)NO
TGI [1]: > 100 µM | TGI [2]: > 100 µM | TGI [3]: > 100 µM | TGI [4]: 27 µM | TGI [5]: 56.6 µM | TGI [6]: > 100 µM | TGI [7]: > 100 µM | TGI [8]: 34.9 µM | TGI [9]: > 100 µM | TGI [10]: 52.3 µM

C=C1c2nc3ccccc3n2C=C(c2ccc(Cl)cc2)N1c1ccc(OC)cc1
TGI [1]: 20.7 µM | TGI [2]: 6.88 µM | TGI [3]: 25.9 µM | TGI [4]: 21.6 µM | TGI [5]: 45.7 µM | TGI [6]: > 100 µM | TGI [7]: 22.9 µM | TGI [8]: 25.7 µM | TGI [9]: 15.8 µM | TGI [10]: 23.7 µM

CCCSc1nc(-c2ccc(OC)cc2)c(C#N)c(=O)n1C1OC(COC(C)=O)C(OC(C)=O)C(OC(C)=O)C1OC(C)=O (stereo unspecified)
GI50 [4]: > 100 µM | TGI [4]: > 100 µM | TGI [6]: > 100 µM | TGI [7]: > 100 µM | GI50 [8]: > 100 µM and 35.3 µM | TGI [8]: > 100 µM | TGI [10]: > 100 µM

N#Cc1nc(C2CCC2)oc1N
TGI [1]: > 100 µM | TGI [3]: > 100 µM | TGI [4]: > 100 µM | TGI [5]: > 100 µM | TGI [6]: > 100 µM | TGI [7]: > 100 µM | TGI [8]: > 100 µM | TGI [9]: > 100 µM | TGI [10]: > 100 µM

CC(C)OC(=O)OCSc1ccccc1N=Cc1cccc([N+](=O)[O-])c1
TGI [1]: > 10 µM | TGI [2]: > 10 µM | TGI [3]: > 10 µM | TGI [4]: > 10 µM | TGI [5]: > 10 µM | TGI [6]: > 10 µM | TGI [7]: > 10 µM | TGI [8]: > 10 µM | TGI [9]: > 10 µM | TGI [10]: > 10 µM

CC(=O)OC1C(COC(=O)c2ccccc2)OC(Nc2ncc(-c3ccc(Br)cc3)s2)C(OC(=O)c2ccccc2)C1OC(=O)c1ccccc1 (stereo unspecified)
TGI [1]: > 100 µM | TGI [2]: > 100 µM | TGI [3]: > 100 µM | TGI [4]: > 100 µM | TGI [5]: > 100 µM | TGI [6]: > 100 µM | TGI [7]: > 100 µM | TGI [8]: > 100 µM | TGI [9]: > 100 µM | TGI [10]: > 100 µM

CCOC(=O)C1CCC(=O)N1C(=O)c1ccccc1 (stereo unspecified)
TGI [1]: > 100 µM | TGI [2]: > 100 µM | TGI [3]: > 100 µM | TGI [4]: > 100 µM | TGI [6]: > 100 µM | TGI [7]: > 100 µM | TGI [8]: > 100 µM | TGI [9]: > 100 µM

O=c1cc(-c2cc(O)c(O)c(-c3c(O)cc4oc(-c5ccc(O)c(O)c5)cc(=O)c4c3O)c2)oc2cc(O)cc(O)c12
TGI [2]: > 25 µM | TGI [3]: > 25 µM | TGI [4]: > 25 µM | TGI [5]: > 25 µM | TGI [6]: > 25 µM | TGI [7]: > 25 µM | TGI [8]: > 25 µM | TGI [9]: > 25 µM | TGI [10]: > 25 µM

CC(=O)c1cnc2oc3ccc(O)cc3c2c1-c1ccccc1
TGI [1]: > 100 µM | TGI [3]: > 100 µM | TGI [4]: > 100 µM | TGI [5]: > 100 µM | TGI [6]: > 100 µM | TGI [7]: > 100 µM | TGI [8]: 82.6 µM | TGI [9]: > 100 µM | TGI [10]: 45.4 µM

C=Cc1ccccc1C1(O)C=CC(OC)(OC)C=C1
TGI [1]: 16.4 µM | TGI [3]: 50.5 µM | TGI [4]: 11.7 µM | TGI [6]: 10.6 µM | TGI [7]: 16.2 µM | TGI [8]: 7.53 µM | TGI [9]: 3.65 µM | TGI [10]: 29.3 µM

CN(C)CCC(=O)/C=C\c1ccccc1
TGI [1]: 29.8 µM | TGI [3]: 33.9 µM | TGI [4]: 28.7 µM | TGI [6]: 33.1 µM | TGI [8]: 32.2 µM | TGI [9]: 37 µM

COc1cc2c(cc1OC)-c1cc3ccccc3c(=O)n1CC2
TGI [2]: > 100 µM | TGI [3]: > 100 µM | TGI [4]: 33.9 µM | TGI [5]: > 100 µM | TGI [6]: 97 µM | TGI [7]: > 100 µM | TGI [8]: 73.3 µM | TGI [9]: > 100 µM | TGI [10]: 74.5 µM

CC(=O)OCc1c(O)c2c(c(O)c1COC(C)=O)C(=O)C=CC2=O
TGI [3]: 32 µM | TGI [4]: 25.6 µM | TGI [6]: 15.1 µM | TGI [7]: 29 µM | TGI [8]: 22.1 µM | TGI [9]: 30.2 µM | TGI [10]: 33.4 µM

N#Cc1nc(NC(=O)c2ccccc2C(=O)O)c(C#N)[nH]1
TGI [1]: > 100 µM | TGI [3]: > 100 µM | TGI [4]: > 100 µM | TGI [5]: > 100 µM | TGI [6]: > 100 µM | TGI [7]: > 100 µM | TGI [8]: > 100 µM | TGI [9]: > 100 µM | TGI [10]: > 100 µM

COc1ccc(CC2COc3cc(O)cc(O)c3C2=O)cc1O (stereo unspecified)
TGI [1]: 92.3 µM | TGI [2]: > 100 µM | TGI [3]: > 100 µM | TGI [6]: > 100 µM | TGI [7]: > 100 µM | TGI [8]: 6.87 µM | TGI [9]: > 100 µM | TGI [10]: 38.6 µM

COc1ccc(COCC[C@H](C)OC2OC(CO[Si](C)(C)C(C)(C)C)C(OC(=O)CCCN=[N+]=[N-])C(OC(=O)CCCN=[N+]=[N-])C2OC(=O)CCCN=[N+]=[N-])cc1 (stereo partly specified)
TGI [1]: > 100 µM | TGI [2]: 68.9 µM | TGI [3]: > 100 µM | TGI [4]: > 100 µM | TGI [5]: > 100 µM | TGI [7]: > 100 µM | TGI [8]: > 100 µM | TGI [9]: 75.8 µM | TGI [10]: > 100 µM

O=C(c1ccncc1)C1C(=O)c2ccccc2C1C1(O)c2ccccc2CC1C(O)c1ccncc1 (stereo unspecified)
TGI [1]: > 100 µM | TGI [2]: > 100 µM | TGI [3]: > 100 µM | TGI [4]: > 100 µM | TGI [5]: 38.9 µM | TGI [6]: 69.7 µM | TGI [7]: > 100 µM | TGI [9]: > 100 µM | TGI [10]: > 100 µM

O=c1cc(-c2ccccc2)oc2c(-c3cc(Cl)cc4c(=O)cc(-c5ccccc5)oc34)cc(Cl)cc12
TGI [1]: > 100 µM | TGI [2]: > 100 µM | TGI [3]: > 100 µM | TGI [5]: > 100 µM | TGI [6]: 52.1 µM | TGI [7]: > 100 µM | TGI [8]: 80.5 µM | TGI [9]: > 100 µM | TGI [10]: 85.2 µM

CN(C)CCNC(=O)c1cccc2nc(-c3ccccc3)oc12
TGI [3]: > 55.8 µM | TGI [4]: > 100 µM | TGI [6]: > 89.5 µM | TGI [7]: > 100 µM | TGI [8]: > 100 µM | TGI [9]: > 100 µM | TGI [10]: > 100 µM

Cc1ccc(/C=C2\Cc3c(C)cc(C)cc3C2=O)c(C(=O)O)c1
TGI [1]: > 100 µM | TGI [2]: > 100 µM | TGI [3]: > 100 µM | TGI [4]: > 100 µM | TGI [5]: > 100 µM | TGI [6]: > 100 µM | TGI [7]: > 100 µM | TGI [8]: 94 µM | TGI [9]: > 100 µM

NS(=O)(=O)c1cccc(NC(=S)NC(=O)Nc2ccc(Cl)c(Cl)c2)c1
TGI [1]: 30.3 µM | TGI [2]: 32.1 µM | TGI [4]: 31.4 µM | TGI [5]: 38.2 µM | TGI [6]: 37.6 µM | TGI [7]: 34 µM | TGI [9]: 32.5 µM | TGI [10]: 54.1 µM

COc1c(O)c2c(=O)cc(OC)c3c4c(OC)cc(=O)c5c(O)c(OC)c6c(c(c1C(C(C)O)C6C(C)O)c23)c54 (stereo unspecified)
TGI [1]: 4.78 µM | TGI [3]: 3.56 µM | TGI [4]: 6.18 µM | TGI [5]: 3.96 µM | TGI [6]: 1.25 µM | TGI [7]: 3.71 µM | TGI [8]: 2.66 µM | TGI [9]: 2.48 µM | TGI [10]: 8.64 µM

c1c2c(cc(-n3nnc4c3CCCCCC4)c1-n1nnc3c1CCCCCC3)CCCCCC2
outcome [1]: inactive | TGI [3]: 23.6 µM | TGI [4]: 21.6 µM | TGI [6]: 11 µM | TGI [8]: 64.8 µM | TGI [9]: 38.7 µM | TGI [10]: 34.5 µM
